pKi: −log10 of the molar value. Read-outs that look alike come from different tables or passages of the source.
Assays:
[1] = biological target: T1, Sigma receptor (Cavia porcellus, UniProt Q60492); assay: Sigma Receptor Binding Assay; assay type: guinea pig (male Hartley), brain membranes
T1 construct: Brain membranes were prepared by the method of Tam; from tissue; host or cells: guinea pig whole brain membranes
Description: Male Hartley guinea pigs (250-300 g, Charles River) were sacrificed by decapitation. […] Whole brains were homogenized (20 sec.) in 10 vol (wt/vol) of ice-cold 0.34 M sucrose with a Brinkmann Polytron (setting 8). The homogenate was centrifuged at 920×g for 10 min. The supernatant was centrifuged at 47,000×g for 20 min. The resulting membrane pellet was resuspended in 10 vol (original wt/vol) of 50 mM Tris HCl (pH 7.4) and incubated at 37° C. for 45 min to degrade and dissociate bound endogenous ligands. The membranes were then centrifuged at 47,000×g for 20 min and resuspended in 50 mM Tris HCl (50 mL per brain).
After 45 rain of incubation at room temperature, samples were filtered rapidly through Whatman GF/C glass filters under negative pressure, and washed 3 times with ice-cold Tris buffer (5 mL).
IC50 s were calculated from log-logit plots. Apparent Ki s were calculated from the equation, Ki =IC50 /[1+(L/Kd)], where L is the concentration of radioligand and Kd is its dissociation constant.

[2] = biological target: T2, Dopamine (D-2) receptor (Cavia porcellus, UniProt H0VE83); assay: Dopamine Receptor Binding; assay type: guinea pig, striatum membranes
T2 construct: Membranes were prepared from guinea pig striatum; from tissue; host or cells: guinea pig striatum membranes
Description: Membranes were prepared from guinea pig striatum by the method described for sigma receptor binding. The membranes were then resuspended in 50 mM Tris HCl (9 mL per brain).
Nonspecific binding was measured in the presence of 100 nM (+)-butaclamol After 15 min of incubation at 37° C. samples were filtered rapidly through Whatman GF/C glass filters under negative pressure, and washed three times with ice-cold binding buffer (5 mL).

[3] = test system: mescaline-induced scratching in mice; assay: Mescaline-Induced Scratching in Mice; assay type: in vivo, mouse (male CF1); details: Mus musculus, 0.75 h, mescaline 25 mg/kg orally, 10 mg/kg po, read-out: Inhibition of Mescaline Scratch (ED50 class)
Description: This is a modification of the procedure of Fellows and Cook (in Psychotropic Drugs, ed. by S. Garrattini and V. Ghatti, pp. 397-404, Elsevier, Amsterdam, 1957) and Deegan and Cook (J. Pharmacol. Exp. Ther. 122: 17A, 1958). Male CF1 Mice (Charles River) were injected orally with test compound and placed singly into square (13 cm) Plexiglass observation chambers. Twenty minutes later mice were injected orally with mescaline (25 mg/kg). Beginning 25 minutes after treatment with mescaline (45 minutes after treatment with test compound), scratching episodes were counted during a 5 minute observation period. A scratching episode is defined as a brief (1-2 sec) burst of scratching either the head or the ear with the hind foot.

[4] = test system: isolation-induced aggression in mice; assay: Isolation-Induced Aggression in Mice; assay type: in vivo, mouse (male Balb/c); details: Mus musculus, po, 0.25 h; mice, p.o., 15 min after dosing; read-out: Inhibition of Isolation-induced Aggression (ED50 class)
Description: Male Balb/c mice (Charles River) were used. […] Isolated mice failing to consistently attack an intruder were eliminated from the colony.
Drug testing was carried out by treating the isolated mice with test drugs or standards. Fifteen min after dosing with drugs by the oral route (p.o.), one isolated mouse was removed from its home cage and placed in the home cage of another isolate. Scoring was a yes or no response for each pair. A maximum of 3 min was allowed for an attack and the pair was separated immediately upon an attack. Selection of home cage and intruder mice was randomized for each test. Mice were treated and tested twice a week with at least a 2 day washout period between treatments.

[5] = 1 nM (+)-[3H]SKF 10,047, guinea pig brain membranes, pH 7.4, 45 min room temperature, read-out: Receptor Binding Affinity Sigma (Ki class)
[6] = 0.15 nM [3H]spiperone, guinea pig striatum, pH 7.7, 15 min 37° C., read-out: Receptor Binding Affinity Dopamine (D-2) (Ki class)

T2 sequence (H0VE83 1-446): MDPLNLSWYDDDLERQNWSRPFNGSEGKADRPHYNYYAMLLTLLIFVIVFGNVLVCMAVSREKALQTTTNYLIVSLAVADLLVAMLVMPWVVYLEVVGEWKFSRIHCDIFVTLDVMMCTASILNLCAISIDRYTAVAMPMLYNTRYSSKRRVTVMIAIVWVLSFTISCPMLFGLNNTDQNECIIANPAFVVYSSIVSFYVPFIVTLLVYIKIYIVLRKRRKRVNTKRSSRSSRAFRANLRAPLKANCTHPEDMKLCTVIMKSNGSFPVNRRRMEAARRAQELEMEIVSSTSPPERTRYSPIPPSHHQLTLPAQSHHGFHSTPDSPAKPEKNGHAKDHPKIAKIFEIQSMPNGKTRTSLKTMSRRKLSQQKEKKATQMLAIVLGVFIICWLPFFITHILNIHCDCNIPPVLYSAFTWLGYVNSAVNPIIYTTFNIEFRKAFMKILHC
T1 sequence (Q60492 whole entry): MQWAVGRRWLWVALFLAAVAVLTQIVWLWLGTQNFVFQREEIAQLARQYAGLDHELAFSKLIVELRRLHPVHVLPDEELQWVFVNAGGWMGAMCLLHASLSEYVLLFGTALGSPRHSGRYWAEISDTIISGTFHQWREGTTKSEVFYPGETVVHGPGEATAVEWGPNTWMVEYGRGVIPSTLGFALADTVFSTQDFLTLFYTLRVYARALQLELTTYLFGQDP

| SMILES | pKi [1, 5] | pKi [2, 6] | pKi [1] | pKi [2] | ED50 [3] | ED50 [4] |
| --- | --- | --- | --- | --- | --- | --- |
| O=C1[C@H]2CCCC[C@H]2C(=O)N1CCCC1=CCN(CCc2ccccc2)CC1 [Example 121] | 7.52 to 9.00 | < 6.30 | – | – | – | – |
| O=C1[C@H]2CCCC[C@H]2C(=O)N1CC1(c2ccccc2)CCN(CCc2ccccc2)CC1 [Example 122, 2-[1-(2-Phenylethyl)-4-phenyl-4-piperidine-methyl]-cis-3a; 4,5,6,7,7a-hexalydro-1H-isoindole-1,3(2H)-dione] | – | < 6.30 | 7.52 to 9.00 | – | – | – |
| O=C1[C@H]2CCCC[C@H]2C(=O)N1CC1(c2cccc(Cl)c2)CCN(CCc2ccccc2)CC1 [Example 123] | – | < 6.30 | 7.52 to 9.00 | – | – | – |
| O=C1[C@H]2CCCC[C@H]2C(=O)N1CC1(c2ccc(Cl)cc2)CCN(CCc2ccccc2)CC1 [Example 124] | – | < 6.30 | 7.52 to 9.00 | – | – | – |
| COc1cccc(C2(CN3C(=O)C4CCCCC4C3=O)CCN(CCc3ccccc3)CC2)c1 (stereo not shown) [Example 125] | – | – | 7.00 to 7.51 | < 6.30 | – | – |
| O=C1C2CCCCC2C(=O)N1CC1(c2cccc(C(F)(F)F)c2)CCN(CCc2ccccc2)CC1 (stereo not shown) [Example 126] | – | < 6.30 | 7.52 to 9.00 | – | – | – |
| O=C1[C@H]2CCCC[C@H]2C(=O)N1CC1(c2cccc3ccccc23)CCN(CCc2ccccc2)CC1 [Example 127] | – | < 6.30 | 7.00 to 7.51 | – | – | – |
| O=C1[C@H]2CCCC[C@H]2C(=O)N1CC1(c2ccsc2)CCN(CCc2ccccc2)CC1 [Example 128] | – | < 6.30 | 7.52 to 9.00 | – | – | – |
| O=C1[C@H]2CCCC[C@H]2C(=O)N1CC1(c2csc3ccccc23)CCN(CCc2ccccc2)CC1 [Example 129] | – | 6.30 to 7.00 | 7.52 to 9.00 | – | – | – |
| O=C1c2ccccc2C(=O)N1CC1(c2cccc(Cl)c2)CCN(CCc2ccccc2)CC1 [Example 130] | – | < 6.30 | 7.52 to 9.00 | – | – | – |
| CC1(CN2C(=O)[C@H]3CCCC[C@H]3C2=O)CCN(CCc2ccccc2)CC1 [Example 132, 2-[1-(2-Phenylethyl)-4-(4-methyl)piperidinylmethyl]-cis-3a, 4,5,6,7,7a-hexahydro-1H-isoindole-1,3(2H)-dione] | 7.52 to 9.00 | < 6.30 | – | – | – | – |
| CC1(CN2C(=O)[C@H]3CCCC[C@H]3C2=O)CCN(CCC2CCCCC2)CC1 [Example 133] | 7.52 to 9.00 | < 6.30 | – | – | – | – |
| O=C1C2=C(CCCC2)C(c2ccccc2)N1CC1CCN(CCc2ccccc2)CC1 (stereo not shown) [Example 134] | 7.00 to 7.51 | – | – | – | < 11 mg/kg | – |
| CCCCC1C2=C(CCCC2)C(=O)N1CC1CCN(CCc2ccccc2)CC1 (stereo not shown) [Example 135] | – | – | – | – | < 11 mg/kg | < 11 mg/kg |
| O=C1C2=C(CCCC2)C(c2ccc(F)cc2)N1CC1CCN(CCc2ccccc2)CC1 (stereo not shown) [Example 136] | 7.00 to 7.51 | – | – | – | < 11 mg/kg | < 11 mg/kg |
| CC1C2=C(CCCC2)C(=O)N1CC1CCN(CCc2ccc(F)cc2)CC1 (stereo not shown) [Example 137] | – | – | – | – | < 11 mg/kg | < 11 mg/kg |
| CCCCCCC1C2=C(CCCC2)C(=O)N1CC1CCN(CCc2ccccc2)CC1 (stereo not shown) [Example 138] | 7.52 to 9.00 | – | – | – | < 11 mg/kg | < 11 mg/kg |
| CC(C)CC1C2=C(CCCC2)C(=O)N1CC1CCN(CCc2ccccc2)CC1 (stereo not shown) [Example 139] | 7.52 to 9.00 | – | – | – | < 11 mg/kg | < 11 mg/kg |
| CCC(C)C1C2=C(CCCC2)C(=O)N1CC1CCN(CCc2ccccc2)CC1 (stereo not shown) [Example 140] | 7.00 to 7.51 | – | – | – | < 11 mg/kg | – |
| O=C1C2=C(CCCC2)C(c2ccco2)N1CC1CCN(CCc2ccccc2)CC1 (stereo not shown) [Example 141] | 7.52 to 9.00 | – | – | – | < 11 mg/kg | – |
| O=C1C2=C(CCCC2)C(c2cccs2)N1CC1CCN(CCc2ccccc2)CC1 (stereo not shown) [Example 142] | 7.52 to 9.00 | – | – | – | < 11 mg/kg | – |
| Cc1ccc(C2C3=C(CCCC3)C(=O)N2CC2CCN(CCc3ccccc3)CC2)cc1 (stereo not shown) [Example 143] | – | – | – | – | < 11 mg/kg | < 11 mg/kg |
| CCCC1C2=C(CCCC2)C(=O)N1CC1CCN(CCc2ccccc2)CC1 (stereo not shown) [Example 144] | – | – | – | – | < 11 mg/kg | < 11 mg/kg |
